{"source": "paper PMC7275043", "about": "(Nature Communications, 2020)", "key": {"[1]": {"molecular_target": "PB2 (FLAG-tagged, A/WSN-FLAG) (Influenza A virus, UniProt P03427)", "sequence (P03427 whole entry, looked up)": "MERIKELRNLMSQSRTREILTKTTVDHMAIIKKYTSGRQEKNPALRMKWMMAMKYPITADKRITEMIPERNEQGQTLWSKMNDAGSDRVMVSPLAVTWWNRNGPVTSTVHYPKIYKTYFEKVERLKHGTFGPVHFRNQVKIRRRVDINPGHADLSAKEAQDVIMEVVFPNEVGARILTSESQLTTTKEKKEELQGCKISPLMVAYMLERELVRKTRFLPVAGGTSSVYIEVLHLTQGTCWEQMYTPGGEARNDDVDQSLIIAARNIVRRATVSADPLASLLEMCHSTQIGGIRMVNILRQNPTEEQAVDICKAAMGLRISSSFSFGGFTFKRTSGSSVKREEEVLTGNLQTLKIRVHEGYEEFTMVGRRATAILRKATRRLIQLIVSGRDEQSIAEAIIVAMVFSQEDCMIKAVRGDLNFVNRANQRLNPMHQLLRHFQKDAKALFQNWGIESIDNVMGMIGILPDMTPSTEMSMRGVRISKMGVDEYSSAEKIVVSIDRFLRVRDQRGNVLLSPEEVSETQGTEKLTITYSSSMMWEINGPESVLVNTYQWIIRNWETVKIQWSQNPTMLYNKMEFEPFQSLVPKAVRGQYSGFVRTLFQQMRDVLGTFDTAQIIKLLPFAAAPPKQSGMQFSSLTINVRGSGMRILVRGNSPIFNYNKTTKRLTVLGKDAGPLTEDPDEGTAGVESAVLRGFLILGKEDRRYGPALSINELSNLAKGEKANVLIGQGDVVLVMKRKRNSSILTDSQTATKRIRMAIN", "format": "cell-based, influenza A/WSN/1933(H1N1)"}, "[2]": {"system": "influenza A strains (H1N1, H3N2, H3N3, H3N8, H5N1)", "format": "cell-based"}, "[3]": {"system": "influenza B virus strains (B/Mem, B/Wis, B/Bris)", "format": "cell-based"}, "influenza B/Mem [4]": {"system": "influenza B/Mem", "format": "cell-based, influenza B/Memphis/12/97"}, "influenza B/Mem [5]": {"system": "influenza B/Mem", "format": "cell-based, influenza B/Memphis/12/97", "remark": "listed apart in the source"}, "influenza B/Mem [6]": {"system": "influenza B/Mem", "set-up": "species or system BALB/c mice", "conditions": "mouse, in vivo, iv, 2.5 mg/kg"}, "[7]": {"system": "PB2CB from influenza B/Mem (PB2IBV)", "format": "biochemical"}, "[8]": {"system": "ZIKV (African strain MR766)", "test": "microbe, parasite or virus in culture", "format": "cell-based, Zika virus"}, "[9]": {"conditions": "mouse, in vivo, iv, 10 mg/kg"}, "[10]": {"molecular_target": "mouse PrP^C in L929 15.9 and CAD5 cells (Mus musculus, UniProt P04925)", "sequence (P04925 23-230 limits assumed)": "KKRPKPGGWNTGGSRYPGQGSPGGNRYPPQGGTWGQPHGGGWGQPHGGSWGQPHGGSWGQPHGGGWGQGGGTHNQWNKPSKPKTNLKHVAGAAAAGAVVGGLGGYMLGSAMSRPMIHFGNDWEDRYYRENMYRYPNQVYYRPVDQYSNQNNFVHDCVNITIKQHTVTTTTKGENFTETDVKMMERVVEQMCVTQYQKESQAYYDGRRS"}, "[11]": {"system": "influenza A strains: H1N1 strain A/PR8 and H5N1 strain A/NIBRG-14", "format": "cell-based"}, "[12]": {"molecular_target": "the molecule itself"}}, "data": [{"molecule": "Ac-WDLIQLIVSDGSDLIQLIVSD-NH2 [12B]", "values": [{"measurement": "soluble PB2 in infected cells", "setting": "[1]", "value": "reduction of soluble PB2"}, {"measurement": "antiviral activity on influenza A strains with APR polymorphisms", "setting": "[2]", "value": "retains activity against all these influenza A strains"}, {"measurement": "antiviral activity in time of addition assays and pretreatment of influenza B virion particles", "setting": "[3]", "value": "showed no antiviral activity"}, {"measurement": "effect on replication of influenza B virus strains", "setting": "[3]", "value": "did not interfere with the replication"}, {"measurement": "influenza B replication in multicycle replication assay", "setting": "influenza B/Mem [4]", "value": "unaffected"}, {"measurement": "protection against cytopathic effects of influenza B", "setting": "influenza B/Mem [5]", "value": "no protection against cytopathic effects"}, {"measurement": "influenza B replication in the murine infection model (viral load in lungs)", "setting": "influenza B/Mem [6]", "value": "not affected"}, {"measurement": "effect on aggregation or conformational stability of PB2IBV (Th-T, ANS)", "setting": "[7]", "value": "showed no effect on the aggregation or conformational stability"}, {"measurement": "interference with ZIKV replication", "setting": "[8]", "value": "no interference with ZIKV replication is observed"}, {"measurement": "aspecific toxic effects on MDCK cells", "setting": "MDCK cells", "value": "no aspecific toxic effects were observed"}, {"measurement": "aspecific toxic effects on HEK 293T cells", "setting": "HEK 293T cells", "value": "no aspecific toxic effects were observed"}, {"measurement": "blood analysis and histopathological evaluation of all major organs", "setting": "[9]", "value": "revealed no abnormalities"}, {"measurement": "conversion of PrP to the aggregated prion state (PrP^SC)", "setting": "[10]", "value": "incapable to convert PrP"}]}, {"molecule": "Ac-RLIQLIVSRPPRLIQLIVSR-NH2 [compound 12]", "values": [{"measurement": "amount of newly produced virus (TCID50 titration), antiviral screen", "setting": "[11]", "value": "showed the most pronounced effect"}, {"measurement": "aspecific cytotoxic effects on MDCK cells", "setting": "MDCK cells", "value": "did not originate from aspecific cytotoxic effects"}]}, {"molecule": "C[C@@]1(O)[C@H](O)[C@@H](CO)O[C@H]1n1ccc2c(N)ncnc21", "note": "[7-DMA, 7-deaza-2′-C-methyladenosine, reference compound]", "values": [{"measurement": "IC50", "setting": "[8]; Zika virus, Vero C1008, 48 h, n = 3, read-out: IC50, fraction of ZIKV-infected cells", "value": "4.74 ± 0.31", "unit": "µM"}, {"measurement": "aspecific toxicity on the mammalian host cell", "setting": "Vero E6 cells", "value": "did not originate from aspecific toxicity"}]}, {"molecule": "WDLIQLIVSDGSDLIQLIVSD (also called amyloid peptide 12B; synthetic amyloid 12B; source: synthetic peptide)", "note": "[peptide 12B]", "values": [{"measurement": "binding result", "setting": "[12]", "value": "binds"}]}]}
